{"source": "the METLIN SMRT retention time set (Domingo-Almenara et al. 2019)", "data": [{"assay": "gradient 5% acetonitrile 3 min, to 50% in 2 min, to 85% in 15 min, held 3 min, 100 µL/min", "conditions": "column: Zorbax Extend-C18 2.1 x 50 mm; eluents: water / acetonitrile, 0.1% formic acid", "method_in_brief": "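Pure standards were analyzed in mixtures of ~100 molecules using HPLC coupled to a quadrupole time-of-flight mass spectrometer, in both positive and negative ionization mode. Separation used a Zorbax Extend-C18 column (2.1 × 50 mm, 1.8 μm) at 100 μL/min, with water and acetonitrile each containing 0.1% formic acid. Dead and dwell volumes were 40 μL and 900 μL, and data were collected over 3 months. Retention time was read from computationally picked adduct peaks, each inspected manually.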", "units": {"RP-LC retention time": "s"}, "values": [{"smiles": "O=C(NCCCn1ncccc1=O)c1ccc(S(=O)(=O)N2CCCC2)cc1", "RP-LC retention time": 621}, {"smiles": "CSc1cccc(NC(=O)C(=O)NCC(c2ccc3c(c2)CCCN3C)N2CCCC2)c1", "note": "(configuration not stated)", "RP-LC retention time": 640}, {"smiles": "COc1ccc(C(=O)N2C[C@@H]3C[C@H](NS(C)(=O)=O)[C@H]2C3)c(C)c1", "RP-LC retention time": 629}, {"smiles": "CCn1cc(S(=O)(=O)NCc2ccc(F)cc2Cl)c2cccnc21", "RP-LC retention time": 855}, {"smiles": "CCOc1ccc(S(=O)(=O)N2CCC(C(=O)NC3CCCCC3)CC2)cc1", "RP-LC retention time": 922}, {"smiles": "Cc1ccc(NC(=O)C2CCCN(S(=O)(=O)c3c[nH]c(C(=O)N4CCCC4)c3)C2)cc1C", "note": "(configuration not stated)", "RP-LC retention time": 866}, {"smiles": "O=C(NCc1csc(-c2cccs2)n1)C1CCN(S(=O)(=O)c2ccc(F)cc2)CC1", "RP-LC retention time": 892}, {"smiles": "COc1ccc(OC)c(C(O)CN2CCN(c3cccc(C)c3)CC2)c1", "note": "(configuration not stated)", "RP-LC retention time": 712}, {"smiles": "Cc1[nH]c(=O)[nH]c(=O)c1CCc1nnc(SCC(=O)NCc2ccco2)o1", "RP-LC retention time": 566}, {"smiles": "Cc1nn(CC(=O)NCC2CCCCC2)c(=O)c2nc(-c3ccccc3)sc12", "RP-LC retention time": 958}, {"smiles": "CCOC(=O)c1nc(NCc2ccc(OC(C)C)cc2)c2c(C)noc2n1", "RP-LC retention time": 1000}, {"smiles": "c1ccc(-c2noc(-c3ccccc3OC3CCNC3)n2)cc1", "note": "(configuration not stated)", "RP-LC retention time": 684}, {"smiles": "Cc1noc(C2CN(C(=O)c3ccc(=O)n(C)n3)C2)n1", "RP-LC retention time": 530}, {"smiles": "CCN(Cc1ccccc1)C(=O)c1cn2cc(Cl)ccc2n1", "RP-LC retention time": 860}, {"smiles": "Cc1c(O)cnc2nn(-c3ccccc3)c(=N)n12", "RP-LC retention time": 822}, {"smiles": "COc1ccc(NC(=O)N2CCC3(CC2)NC(=O)c2ccccc2N3C)c(C)c1", "RP-LC retention time": 781}, {"smiles": "COc1ccc(CCNc2nc(-c3ccccc3)cs2)cc1OC", "RP-LC retention time": 830}, {"smiles": "CCOCCCNC(=O)c1cc2sc(CC)cc2n1C", "RP-LC retention time": 960}, {"smiles": "CCCCOc1ccccc1C(=O)N(Cc1ccc(Br)o1)C1CCS(=O)(=O)C1", "note": "(configuration not stated)", "RP-LC retention time": 991}, {"smiles": "COc1cccc(CCC(=O)Nc2cc(-c3cccnc3)no2)c1", "RP-LC retention time": 756}, {"smiles": "O=C(NCC1COc2ccccc2O1)C(=O)c1c[nH]c2ccccc12", "note": "(configuration not stated)", "RP-LC retention time": 920}, {"smiles": "CCn1c(=O)c(N2CCN(C(=O)NCc3ccc(C)cc3)CC2)nc2ccccc21", "RP-LC retention time": 927}, {"smiles": "CCN(CC)CCNS(=O)(=O)c1cc(-c2nc(C)c(C)s2)sc1C", "RP-LC retention time": 656}, {"smiles": "COc1ccc(C(=O)Nc2cccc(-c3ccc(S(C)(=O)=O)nn3)c2)cc1OC", "RP-LC retention time": 681}, {"smiles": "Cc1c(C(=O)NCCCN2CCOCC2)oc2ccc3c(c12)C(O)CC(C)(C)O3", "note": "(configuration not stated)", "RP-LC retention time": 612}, {"smiles": "Cn1c(=O)c(N2CCC(NC(=O)Nc3ccc(Cl)cc3)CC2)nc2ccccc21", "RP-LC retention time": 904}, {"smiles": "CCCNc1nc(N2CCOCC2)nc(N2CC3CC(C2)c2cccc(=O)n2C3)n1", "note": "(configuration not stated)", "RP-LC retention time": 562}, {"smiles": "CCc1ccc(CNC(=O)C2CCN(c3cc(Oc4ccc(CC)cc4)ncn3)CC2)cc1", "RP-LC retention time": 1120}, {"smiles": "CCC(C)NC(=O)Cn1nc(Cc2ccncc2)c2ccccc2c1=O", "note": "(configuration not stated)", "RP-LC retention time": 572}, {"smiles": "Cc1ccc(Sc2nccnc2N2CCC(C(=O)N3CCN(c4ccc(F)cc4)CC3)CC2)cc1", "RP-LC retention time": 1200}, {"smiles": "Cc1cc(Br)ccc1NC(=O)CCn1c(=O)oc2ccccc21", "RP-LC retention time": 823}, {"smiles": "CN(C)[C@@H]1CN(C(=O)c2ccc(F)cc2Cl)C[C@H]1CO", "RP-LC retention time": 553}, {"smiles": "O=S(=O)(c1ccc(OC(F)(F)F)cc1)N1CCC(c2nnc(C(F)(F)F)o2)CC1", "RP-LC retention time": 1000}, {"smiles": "O=C(NCCC1=CCCCC1)C1CCN(c2cnc(N3CCOCC3)nc2)CC1", "RP-LC retention time": 772}, {"smiles": "Fc1cc(-c2cccc3ncc(-c4cnn(C5CCNCC5)c4)nc23)cc(F)c1CN1CCOCC1", "RP-LC retention time": 611}, {"smiles": "CCCN(C(=O)c1c(C)oc2nc(C)nc(N3CCOCC3)c12)c1ccc(OCC)cc1", "RP-LC retention time": 902}, {"smiles": "CCOC(=O)c1c(C)n(Cc2ccco2)c2ccc(OC)cc12", "RP-LC retention time": 1050}, {"smiles": "CC(C)c1nc(C2CN(C(=O)Nc3ccc(Cl)cc3)C2)n(C)n1", "RP-LC retention time": 704}, {"smiles": "CCc1ccc(NC(=O)CCS(=O)(=O)c2ccc3c(c2)CCCN3C(C)=O)cc1", "RP-LC retention time": 808}, {"smiles": "COC(=O)c1ccc(C(=O)NCC2(c3cccs3)CCCC2)cc1", "RP-LC retention time": 971}, {"smiles": "Cc1cccc(NC(=O)N(C)CCc2noc(COc3ccccc3)n2)c1", "RP-LC retention time": 927}, {"smiles": "O=C(CCc1cc(Cl)no1)N1CCC(c2nc(C3CCOCC3)no2)C1", "note": "(configuration not stated)", "RP-LC retention time": 701}, {"smiles": "CCCN1CCN(C(=O)CC2Sc3ncccc3N(C)C2=O)CC1", "note": "(configuration not stated)", "RP-LC retention time": 576}, {"smiles": "CCCCn1c(C(C)NC(=O)c2ccco2)nc2ccccc21", "note": "(configuration not stated)", "RP-LC retention time": 651}, {"smiles": "COc1cccc(CNC(=O)C2CCN(c3cc(N4CCSCC4)ncn3)CC2)c1", "RP-LC retention time": 656}, {"smiles": "CC(C)(C)c1ccc(C(=O)Nc2nnc(C3CC(=O)N(c4ccc(F)cc4)C3)o2)cc1", "note": "(configuration not stated)", "RP-LC retention time": 872}, {"smiles": "O=S(=O)(c1cccc(F)c1)N1CCC(n2c(-c3ccoc3)nc3cccnc32)C1", "note": "(configuration not stated)", "RP-LC retention time": 872}, {"smiles": "CNC(=O)c1ccc(-c2nc3cc(NS(=O)(=O)c4ccc5c(c4)CCCC5)ccc3n2C)cc1", "RP-LC retention time": 685}, {"smiles": "Cc1c(NC(=O)c2cccs2)c(=O)n(-c2ccccc2)n1C", "RP-LC retention time": 600}, {"smiles": "COc1cccc(-n2cc(C(=O)OCc3ccco3)c3ccccc3c2=O)c1", "RP-LC retention time": 1100}, {"smiles": "COc1ccc(NC(=O)N2CCC(c3cc(N)on3)CC2)cc1", "RP-LC retention time": 640}, {"smiles": "CCCCn1nc2ccc(S(=O)(=O)N3CCCCCC3)cn2c1=O", "RP-LC retention time": 957}, {"smiles": "CC(C)CC[C@@H](O)[C@](C)(O)C1CC[C@@]2(O)C3=CC(=O)[C@]4(O)C[C@@H](O)[C@@H](O)C[C@]4(C)C3[C@H](O)C[C@]12C", "note": "(some centres not stated)", "RP-LC retention time": 638}, {"smiles": "CCCN1N=C(C(=O)N2CCOCC2)S(=O)(=O)c2ccc(Cl)cc21", "RP-LC retention time": 809}, {"smiles": "Cc1cc(N2CCN(C(=O)COc3ccc(Cl)cc3)CC2)nc2nnc(C)n12", "RP-LC retention time": 637}, {"smiles": "CC(C)Sc1ccc(CC(=O)NCC2CCN(C(=O)Nc3ccc(F)cc3)CC2)cc1", "RP-LC retention time": 860}, {"smiles": "CCOC(=O)c1c(CN2CCOCC2)n(C)c2cc(-c3cccnc3)c(O)cc12", "RP-LC retention time": 535}, {"smiles": "O=C1OCC2=C1C(c1ccccc1)NC(=O)N2CC(=O)N1CCCCC1", "note": "(configuration not stated)", "RP-LC retention time": 672}, {"smiles": "CC1=C(c2ccc(C)c(C)c2)S(=O)(=O)N=C1N1CCC(NC(=O)C2CCOC2)CC1", "note": "(configuration not stated)", "RP-LC retention time": 747}, {"smiles": "COc1ccc(C(=O)N2CCC3(CC2)N=C(c2ccc(Cl)cc2)NO3)cc1", "RP-LC retention time": 851}, {"smiles": "O=C(NCc1cccc(Cl)c1)C1CCN(C(=O)c2ncn3c2COC(c2ccccc2)C3)CC1", "note": "(configuration not stated)", "RP-LC retention time": 760}, {"smiles": "COC(=O)C1=C(C)NC(C)=C(C(=O)OC)C1c1cccc(NC(=O)NCCCN2CCC(c3cccc(OC)c3)CC2)c1", "RP-LC retention time": 833}, {"smiles": "Cn1ccc(CN2CCC(Cc3ccccc3)CC2)cc1=O", "RP-LC retention time": 611}, {"smiles": "O=C(NC1CCCCCCC1)C1CCN(C(=O)c2ccc(F)cc2)CC1", "RP-LC retention time": 858}, {"smiles": "COc1ccc(CNC(=O)c2cc3c(=O)n(C)ccc3n2C)cc1", "RP-LC retention time": 664}, {"smiles": "COc1ccc(-c2cc3n(n2)C(NCc2cccs2)CNC3=O)cc1", "note": "(configuration not stated)", "RP-LC retention time": 825}, {"smiles": "Cn1ccc(CN2CCN(Cc3ccccc3F)CC2)cc1=O", "RP-LC retention time": 554}]}]}
